This note sets out measurements from patent publication US12214036B2, “Combination therapy comprising AXL/MER and PD-1/PD-L1 inhibitors” (Incyte Corporation, priority 2020, dated 2025).

This test concerns human PBMCs co-cultured with H1299 cells. As to the kind of experiment: H1299 / PBMC co-culture cytokine assay. It counts as cell-based. Particulars: 4 days. The protocol:
The ability of Compound 1 to cooperate with checkpoint blockade to further boost antitumor responses was evaluated. H1299 lung cancer cells were co-cultured with stimulated human PBMCs treated with Compound 1, anti-human programmed cell death (PD)-1 antibody retifanlimab or the combination, and production of proinflammatory cytokines was assessed in two different experiments (FIG. 6).
H1299 cells were co-cultured with human PBMCs, each at 4 or 16×10^4 cells/mL in RPMI containing 10% FBS, 100 U/mL of penicillin-streptomycin (ThermoFisher Scientific; #15140-122) and 1× beta-mercaptoethanol (ThermoFisher Scientific; #21985-023). Compound 1 or retifanlimab were added as single agents or in combination to the cells. Anti-CD3 (BD Biosciences #555336), anti-CD28 (BD Biosciences #555725) or SEA (Toxin Technology, Sarasota, Fla.; #AT101red) were added at a final concentration of 1 μg/mL, 0.5 μg/mL or 100 ng/mL, respectively, to stimulate cell growth. Cultures were incubated at 37° C. in 5% CO2 incubator for 4 days. The supernatant was collected for cytokine analysis using a multiplex assay system (custom human ProcartaPlex Luminex kit, ThermoFisher Scientific; #PPX-15-MXRWE6P).

For `CC(C)C(=O)N1CCC(c2cc(-c3ccc(NC(=O)c4cn(C(C)C)c(=O)n(-c5ccccn5)c4=O)cc3)c3c(N)ncnn23)CC1` [Compound 1, N-(4-(4-Amino-7-(1-isobutyrylpiperidin-4-yl)pyrrolo[1,2-f][1,2,4]triazin-5-yl)phenyl)-1-isopropyl-2,4-dioxo-3-(pyridin-2-yl)-1,2,3,4-tetrahydropyrimidine-5-carboxamide], for the setting “stimulated PBMCs + H1299, FIG. 6”, the proinflammatory cytokine production result was “induction of proinflammatory cytokines”. The “induction of IFN-γ” value (stimulated PBMCs + H1299, FIG. 6B) is reported as “induced”. Moreover, the “induction of tumor necrosis factor-α” value (stimulated PBMCs + H1299, FIG. 6C) is “induced”. Under “stimulated PBMCs + H1299, FIG. 6D”, the “induction of granulocyte-macrophage colony-stimulating factor” value was “induced”. The “induction of IL-12 p70” value (stimulated PBMCs + H1299, FIG. 6E) is “moderately induced”.
